Legend:
thromboxane synthetase = experiment: inhibition of thromboxane production (TxB2 radio-immunoassay, rabbit platelet rich plasma); assay type: cell-based; settings: Oryctolagus cuniculus, rabbit PRP, adenosine diphosphate and adrenalin, read-out: IC50 (50% inhibition of TxB2)
Method: The compounds of formula I were tested for their ability to inhibit thromboxane production by the following standard test:
a) Generation of thromboxanes
Blood (approx. 75 ml) is obtained from an anaesthetised rabbit and centrifuged at 200 g for 10 minutes to obtain platelet rich plasma (PRP). An aliquot of PRP is incubated for 10 minutes at 37° C. in the presence of vehicle or drug. Platelet aggregation is induced by the addition of adenosine diphosphate and adrenalin. The tubes are incubated for 3 minutes, centrifuged at 10,000 for 3 minutes and a […] aliquot of the supernatant taken for radio-immunoassay of thromboxane B2 (TxB2).
b) Radio-immunoassay of TxB2
The total incubation volume is 150μ containing 50μl of ^3 H - TxB2 (0.005 μCi), […] of sample or authentic TxB2 ranging from 5 to 300 pg per tube as standards and 50 μl of rabbit anti-sera to TxB2 (in a concentration which will bind 50% of H-TxB2) After incubation for 1 hour at room temperature the tubes are further incubated for 16-20 hours at 4° C. 1 ml of dextran-coated charcoal is then added to the tubes which are further incubated on ice for 10 minutes. Following the incubation the samples are centrifuged at 10,000 g for 10 minutes and […] of the supernatant added to 5 ml of scintillation cocktail. Measurement of the radioactivity in the supernatant quantifies the amount of [^3 H]-TxB2 bound by the antibody. The concentration of unlabelled TxB2 in the sample is then determined from a linear standard curve.
IC50 values represent the concentrations of drug which achieve 50% inhibition of TxB2.

[1] = system: spontaneously hypertensive rats; experiment: antihypertensive activity in spontaneously hypertensive rats (tail cuff systolic pressure); assay type: in vivo, rat
Method: The compounds of formula I were tested for antihypertensive activity by the following standard procedure:
The blood pressures of male or female spontaneously hypertensive rats are measured in a 37° C constant temperature housing by means of a tail cuff. Rats with systolic pressures below 155 mmHg are discarded. Groups of rats are dosed orally with the test substance in a suitable vehicle or with vehicle alone. Systolic pressures are recorded before dosing and at selected time points afterwards. Heart rates are derived from caudal artery pulses. Results are analysed statistically by means of 2 way analysis of variance (within group).

isolated rat portal vein = experiment: calcium antagonist activity: response of isolated rat portal vein to increasing calcium ion concentration in vitro; settings: read-out: molar concentration required to reduce the response by 50%
Excerpt: In this-test a-molar concentration of 2×10^-7 M of 1,4-dihydro-2-(imidazol- 1-ylmethyl)-6-methyl 4-(3-nitrophenyl)pyridine-3, 5-dicarboxylic acid 3-ethyl 5-methyl ester was required to reduce the response by 50%.

[2] = system: blood platelet aggregation; experiment: inhibition of blood platelet aggregation (arachidonic acid induced, rabbit platelet rich plasma); assay type: cell-based, rabbit (New Zealand White); settings: IC50 dazoxiben / IC50 test; 250 μM arachidonic acid, rabbit PRP
Method: Compounds of formula I were tested for their ability to inhibit blood platelet aggregation by a modification of the procedure of Fantl, Australian J.Exp.Biol- Med.Sci. 45, 355-62 1967.
Since platelet aggregation is the initial step in thrombus formation it -is considered that compounds which prevent aggregation or reduce platelet adhesiveness may inhibit the initiation of the atherosclerotic process. The effect of drugs on adhesiveness is measured in platelet-rich plasma containing a small amount of arachidonic acid which markedly increases aggregation in vitro and may be a physiological agent for doing so in vivo. The actual test procedure used in described below.
New Zealand White rabbits (2.5-3kg) are anaesthetised with an injection, via the marginal ear vein, of […]. The carotid artery is cannulated and blood (100-150 ml) is withdrawn into 50 ml syringes containing 3.8% sodium citrate (Ratio blood: citrate =9:1).
Blood is centrifuged at 200 g (1500 r.p.m.) for 10 minutes at 5° C. and the platelet rich plasma (PRP) removed. The platelets are then kept at room temperature in a screw topped plastic centrifuge tube for the duration of the experiment.
A twin channel platelet aggregometer--(HU aggregometer, A. Browne Ltd, Leicester, UK) is used. 1.0 ml aliquots of PRP are prewarmed for 5-10 minutes and stirred continuously at 1100 rpm. Aggregation is induced by addition of 250μM arachidonic acid, (8μl volume) to the PRP samples. The aggregometer output is set at maximum and the chart recorder sensitivity is altered to give a full scale deflection to this arachidonic acid response.
Control responses are recorded as the maximum deflection obtained after addition of 250μM arachidonic acid.
PRP samples are preincubated for 1 minute with the test compounds followed by arachidonic acid addition. The maximum deflection after the addition of arachidonic acid is then recorded. All drugs are screened initially at 10^-4 M (final concentration), i.e. 10μl of a 1×10^-2 M stock solution of the drug dissolved in distilled water is added to the PRP.
Dazoxiben, a thromboxane synthetase inhibitor (Randall, M. J. et al Research 23 145-162, 1981)is used as a positive control and all test components are compared with Dazoxiben. The activity of the test compound is expressed as the ratio IC50 Dazaxiben/IC50 Test where IC50 is the dose required to inhibit the A.A. induced aggregation by 50%.

human platelet PLA2 = experiment: Phospholipase A2 (PLA2) inhibition, hydrolysis of E.coli membrane phospholipids by human platelet PLA2; assay type: biochemical; settings: 100 μM
Method: Of particular interest for this activity are compounds of formula I wherein Ar represents an aryl radical having a 2-nitro substituent. […] PLA2 activity was assayed by a procedure based on Franson, R.C., Chapter 12. Intracellular Metabolism of Ingested Phospholipids. Liposomes: from Physical Structure to Therapeutic Applications. North-Holland Biomedical Press, 1981, pp 349-380 and involving measuring the hydrolysis of E.coli membrane phospholipids and the release of free [1-^14 ]oleic acid from the C-2 position of phospholipids by human platelet PLA2.

COC(=O)C1=C(C)NC(CCn2cnc3ccccc32)=C(C(=O)OC)C1c1cccc(Cl)c1Cl (stereo not drawn) [Example 5, 2-[2-(1-Benzimidazolyl)ethyl]-4-[2,3-dichlorophenyl]-1,4-dihydro-6-methylpyridine-3,5-dicarboxylic acid dimethylester]
IC50 (thromboxane synthetase): 12.3 µM

CCOC(=O)C1=C(Cn2ccnc2)NC(C)=C(C(=O)OC)C1c1cccc([N+](=O)[O-])c1 (stereo not drawn) [Example 1, 1,4-Dihydro-2-(imidazol-1-ylmethyl)-6-methyl-4-(3-nitro-phenyl)pyridine-3,5-dicarboxylic acid 3-ethyl 5-methyl diester]
BLOOD PRESSURE as % of pre-dose level ([1]; 0.003 mmol/kg po, 6 hrs): 70% | BLOOD PRESSURE as % of pre-dose level ([1]; 0.003 mmol/kg po, 24 hrs): 83% | BLOOD PRESSURE as % of pre-dose level ([1]; 0.003 mmol/kg po, t = 2 hrs): 65% | BLOOD PRESSURE as % of pre-dose level ([1]; 0.03 mmol/kg po, 6 hrs): 62% | BLOOD PRESSURE as % of pre-dose level ([1]; 0.03 mmol/kg po, 24 hrs): 105% | BLOOD PRESSURE as % of pre-dose level ([1]; 0.03 mmol/kg po, t = 2 hrs): 48% | BLOOD PRESSURE as % of pre-dose level ([1]; 0.15 mmol/kg po, 6 hrs): 46% | BLOOD PRESSURE as % of pre-dose level ([1]; 0.15 mmol/kg po, 24 hrs): 85% | BLOOD PRESSURE as % of pre-dose level ([1]; 0.15 mmol/kg po, t = 2 hrs): 42% | IC50 (isolated rat portal vein): 0.2 µM | Inhibition of blood platelet aggregation potency ratio (dazoxiben = 1) [2]: 1.2 | IC50 (thromboxane synthetase): 5 µM

CCOC(=O)C1=C(C)NC(CCn2ccnc2)=C(C(=O)OCC)C1c1ccccc1[N+](=O)[O-] (stereo not drawn) [Example 2, 1,4-Dihydro-2-[2-(imidazol-1-yl)-ethyl]-6-methyl-4-(2-nitrophenyl)pyridine-3,5-dicarboxylic acid diethyl ester]
BLOOD PRESSURE as % of pre-dose level ([1]; 0.03 mmol/kg po, 6 hrs): 99% | BLOOD PRESSURE as % of pre-dose level ([1]; 0.03 mmol/kg po, 24 hrs): 105% | BLOOD PRESSURE as % of pre-dose level ([1]; 0.03 mmol/kg po, t = 2 hrs): 63% | BLOOD PRESSURE as % of pre-dose level ([1]; 0.15 mmol/kg po, 6 hrs): 42% | BLOOD PRESSURE as % of pre-dose level ([1]; 0.15 mmol/kg po, 24 hrs): 74% | BLOOD PRESSURE as % of pre-dose level ([1]; 0.15 mmol/kg po, t = 2 hrs): 35% | Inhibition of blood platelet aggregation potency ratio (dazoxiben = 1) [2]: 0.79 | IC50 (thromboxane synthetase): 2.3 µM | inhibition of PLA2 activity (human platelet PLA2): 77%

COC(=O)C1=C(C)NC(CCn2ccnc2)=C(C(=O)OC)C1c1ccccc1[N+](=O)[O-] (stereo not drawn) [Example 3, 1,4-Dihydro-2-[2-(1-imidazolyl)ethyl]-6-methyl-4-(2-nitrophenyl)pyridine-3,5-dicarboxylic acid dimethyl ester]
Inhibition of blood platelet aggregation potency ratio (dazoxiben = 1) [2]: 1.64

CCOC(=O)C1=C(COc2cccnc2)NC(C)=C(C(=O)OC)C1c1cccc([N+](=O)[O-])c1 (stereo not drawn) [Example 4, 1,4-Dihydro-2methyl-4-(3-nitrophenyl)-6-[(3-pyridyloxy)methyl]pyridine-3,5-dicarboxylic acid 5-ethyl-3-methyl diester]
Inhibition of blood platelet aggregation potency ratio (dazoxiben = 1) [2]: 1.1

— patent US5068337A, “1,4-dihydropyridines and their ability to inhibit blood platelet aggregation, inhibit thromboxane synthetase and phospholipase” (John Wyeth & Brother Limited, priority 1984, dated 1991)
